Measurements from ChEMBL document CHEMBL1150977, “A quantitative analysis of kinase inhibitor selectivity” (Nat Biotechnol, 2008).

Legend:
[1] = target: T1, Dual specificity mitogen-activated protein kinase kinase 3 (Homo sapiens, UniProt P46734)
T1 sequence (P46734 whole entry): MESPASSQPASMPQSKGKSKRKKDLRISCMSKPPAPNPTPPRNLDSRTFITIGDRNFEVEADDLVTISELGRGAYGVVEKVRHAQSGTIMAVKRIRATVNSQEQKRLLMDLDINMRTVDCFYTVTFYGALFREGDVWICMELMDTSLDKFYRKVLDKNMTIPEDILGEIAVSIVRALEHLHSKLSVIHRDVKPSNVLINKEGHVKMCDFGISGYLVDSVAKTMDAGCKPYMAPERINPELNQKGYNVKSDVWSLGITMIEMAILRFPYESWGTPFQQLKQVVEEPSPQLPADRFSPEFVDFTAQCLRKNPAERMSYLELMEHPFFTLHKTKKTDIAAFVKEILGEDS

[2] = target: Serine/threonine-protein kinase 38-like (Homo sapiens, UniProt Q9Y2H1)
[3] = target: Fibroblast growth factor receptor 3 (Homo sapiens, UniProt P22607)
Ephrin type-A receptor 1 = target: T2, Ephrin type-A receptor 1 (Homo sapiens, UniProt P21709)
T2 sequence (P21709 whole entry): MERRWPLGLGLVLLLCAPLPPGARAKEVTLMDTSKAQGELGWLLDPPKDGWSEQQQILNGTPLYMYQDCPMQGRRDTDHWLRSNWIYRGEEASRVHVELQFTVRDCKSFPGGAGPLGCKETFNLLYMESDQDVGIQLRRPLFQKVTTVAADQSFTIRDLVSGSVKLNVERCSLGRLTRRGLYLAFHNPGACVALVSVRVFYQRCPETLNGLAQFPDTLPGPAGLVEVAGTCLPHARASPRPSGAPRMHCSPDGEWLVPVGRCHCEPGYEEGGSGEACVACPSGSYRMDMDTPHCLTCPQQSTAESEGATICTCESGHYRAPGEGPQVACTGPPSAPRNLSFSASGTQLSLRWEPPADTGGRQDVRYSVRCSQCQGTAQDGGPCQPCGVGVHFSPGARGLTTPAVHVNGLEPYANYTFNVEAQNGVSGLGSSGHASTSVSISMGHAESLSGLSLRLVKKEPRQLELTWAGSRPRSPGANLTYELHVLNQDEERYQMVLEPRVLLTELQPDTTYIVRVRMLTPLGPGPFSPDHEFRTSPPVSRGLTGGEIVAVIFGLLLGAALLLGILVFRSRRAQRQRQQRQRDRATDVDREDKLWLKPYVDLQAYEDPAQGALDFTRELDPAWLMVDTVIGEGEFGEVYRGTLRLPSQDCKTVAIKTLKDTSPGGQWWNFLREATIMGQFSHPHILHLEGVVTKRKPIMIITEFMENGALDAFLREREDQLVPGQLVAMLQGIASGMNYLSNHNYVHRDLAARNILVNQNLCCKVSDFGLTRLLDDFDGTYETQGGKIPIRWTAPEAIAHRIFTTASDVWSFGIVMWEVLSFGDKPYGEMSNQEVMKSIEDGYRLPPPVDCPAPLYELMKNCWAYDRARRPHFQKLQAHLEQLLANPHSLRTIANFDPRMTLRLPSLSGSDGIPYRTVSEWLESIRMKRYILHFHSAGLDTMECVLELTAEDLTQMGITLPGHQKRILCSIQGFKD

[4] = target: Non-receptor tyrosine-protein kinase TYK2 (Homo sapiens, UniProt P29597)
[5] = target: Serine/threonine-protein kinase Nek6 (Homo sapiens, UniProt Q9HC98)
Insulin receptor = Insulin receptor (Homo sapiens, UniProt P06213)
[6] = target: Dual specificity protein kinase CLK3 (Homo sapiens, UniProt P49761)
[7] = target: T3, Serine/threonine-protein kinase Nek9 (Homo sapiens, UniProt Q8TD19)
T3 sequence (Q8TD19 whole entry): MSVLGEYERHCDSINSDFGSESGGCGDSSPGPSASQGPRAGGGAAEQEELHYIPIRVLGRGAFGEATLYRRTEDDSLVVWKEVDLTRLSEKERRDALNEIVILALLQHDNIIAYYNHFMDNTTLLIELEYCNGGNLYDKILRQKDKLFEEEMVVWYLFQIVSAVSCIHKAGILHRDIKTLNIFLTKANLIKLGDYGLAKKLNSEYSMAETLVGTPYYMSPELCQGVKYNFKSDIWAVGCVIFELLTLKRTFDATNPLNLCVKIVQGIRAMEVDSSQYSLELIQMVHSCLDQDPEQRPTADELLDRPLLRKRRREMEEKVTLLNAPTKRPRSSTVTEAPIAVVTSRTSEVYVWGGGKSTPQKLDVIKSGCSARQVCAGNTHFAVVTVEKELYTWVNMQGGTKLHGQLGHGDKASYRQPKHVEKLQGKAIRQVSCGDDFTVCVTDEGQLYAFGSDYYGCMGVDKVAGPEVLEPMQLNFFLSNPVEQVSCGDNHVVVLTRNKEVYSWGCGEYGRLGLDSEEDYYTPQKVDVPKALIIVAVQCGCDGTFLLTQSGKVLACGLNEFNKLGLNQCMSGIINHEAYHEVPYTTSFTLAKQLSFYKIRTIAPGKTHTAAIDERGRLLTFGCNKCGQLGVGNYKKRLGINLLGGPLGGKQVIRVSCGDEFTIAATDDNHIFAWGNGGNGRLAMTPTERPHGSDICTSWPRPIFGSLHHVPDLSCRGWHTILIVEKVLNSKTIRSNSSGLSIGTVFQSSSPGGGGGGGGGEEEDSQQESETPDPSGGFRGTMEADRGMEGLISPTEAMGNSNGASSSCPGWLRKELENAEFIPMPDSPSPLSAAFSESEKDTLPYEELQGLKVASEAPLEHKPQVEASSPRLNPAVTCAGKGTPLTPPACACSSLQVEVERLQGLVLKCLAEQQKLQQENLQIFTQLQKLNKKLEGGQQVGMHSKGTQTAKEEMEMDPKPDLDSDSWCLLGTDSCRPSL

[8] = target: Glycogen synthase kinase-3 alpha (Homo sapiens, UniProt P49840)

Serine/threonine-protein kinase 38-like, sequence (Q9Y2H1 whole entry): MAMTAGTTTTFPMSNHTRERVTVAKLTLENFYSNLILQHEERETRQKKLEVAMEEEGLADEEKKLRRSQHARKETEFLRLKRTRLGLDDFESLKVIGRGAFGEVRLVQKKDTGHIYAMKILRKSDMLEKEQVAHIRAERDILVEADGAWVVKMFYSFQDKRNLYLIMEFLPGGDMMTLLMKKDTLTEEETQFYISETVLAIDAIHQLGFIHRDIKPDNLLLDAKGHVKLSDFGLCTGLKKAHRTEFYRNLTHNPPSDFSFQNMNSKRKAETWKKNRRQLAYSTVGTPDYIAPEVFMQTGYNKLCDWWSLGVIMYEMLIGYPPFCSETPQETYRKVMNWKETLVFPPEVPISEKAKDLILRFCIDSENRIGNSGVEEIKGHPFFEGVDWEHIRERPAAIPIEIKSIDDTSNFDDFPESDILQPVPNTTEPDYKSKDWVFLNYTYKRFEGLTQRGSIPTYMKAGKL
Insulin receptor, sequence (P06213 28-758 limits assumed): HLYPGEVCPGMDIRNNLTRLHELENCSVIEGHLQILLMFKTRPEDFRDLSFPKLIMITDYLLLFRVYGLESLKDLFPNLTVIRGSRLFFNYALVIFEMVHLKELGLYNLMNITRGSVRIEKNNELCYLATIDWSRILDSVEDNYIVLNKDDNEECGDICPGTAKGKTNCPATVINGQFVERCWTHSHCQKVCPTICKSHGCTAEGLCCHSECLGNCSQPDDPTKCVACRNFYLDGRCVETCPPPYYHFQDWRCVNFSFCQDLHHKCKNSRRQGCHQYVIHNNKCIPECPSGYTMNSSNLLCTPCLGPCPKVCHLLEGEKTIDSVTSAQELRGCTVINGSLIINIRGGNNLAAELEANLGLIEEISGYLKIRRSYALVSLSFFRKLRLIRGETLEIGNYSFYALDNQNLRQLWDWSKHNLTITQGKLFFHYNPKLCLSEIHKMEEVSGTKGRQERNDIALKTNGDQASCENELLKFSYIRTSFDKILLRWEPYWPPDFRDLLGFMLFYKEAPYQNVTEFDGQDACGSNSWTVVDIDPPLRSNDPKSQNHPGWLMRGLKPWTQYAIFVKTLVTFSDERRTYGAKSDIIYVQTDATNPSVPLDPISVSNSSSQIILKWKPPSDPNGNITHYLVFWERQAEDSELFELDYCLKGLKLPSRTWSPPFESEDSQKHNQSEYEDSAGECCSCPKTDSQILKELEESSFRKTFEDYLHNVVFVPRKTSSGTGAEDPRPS
Insulin receptor, sequence (P06213 763-1382 limits assumed): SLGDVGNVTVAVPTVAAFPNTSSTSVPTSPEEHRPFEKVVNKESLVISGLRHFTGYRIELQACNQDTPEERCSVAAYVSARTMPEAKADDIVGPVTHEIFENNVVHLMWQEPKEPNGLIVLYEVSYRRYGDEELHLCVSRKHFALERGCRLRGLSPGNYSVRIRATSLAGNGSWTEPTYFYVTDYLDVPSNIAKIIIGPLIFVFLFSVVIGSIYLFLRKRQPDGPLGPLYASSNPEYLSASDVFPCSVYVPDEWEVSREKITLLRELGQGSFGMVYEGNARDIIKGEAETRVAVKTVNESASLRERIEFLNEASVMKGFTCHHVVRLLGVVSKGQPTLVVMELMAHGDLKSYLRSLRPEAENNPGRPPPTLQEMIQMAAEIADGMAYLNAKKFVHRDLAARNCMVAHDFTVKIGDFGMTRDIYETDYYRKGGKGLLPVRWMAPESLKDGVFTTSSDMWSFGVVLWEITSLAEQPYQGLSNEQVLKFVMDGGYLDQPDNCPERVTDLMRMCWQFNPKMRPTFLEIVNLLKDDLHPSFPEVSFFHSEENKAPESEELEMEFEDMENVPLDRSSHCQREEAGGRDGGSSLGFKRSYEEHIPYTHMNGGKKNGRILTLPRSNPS
Dual specificity protein kinase CLK3, sequence (P49761 whole entry): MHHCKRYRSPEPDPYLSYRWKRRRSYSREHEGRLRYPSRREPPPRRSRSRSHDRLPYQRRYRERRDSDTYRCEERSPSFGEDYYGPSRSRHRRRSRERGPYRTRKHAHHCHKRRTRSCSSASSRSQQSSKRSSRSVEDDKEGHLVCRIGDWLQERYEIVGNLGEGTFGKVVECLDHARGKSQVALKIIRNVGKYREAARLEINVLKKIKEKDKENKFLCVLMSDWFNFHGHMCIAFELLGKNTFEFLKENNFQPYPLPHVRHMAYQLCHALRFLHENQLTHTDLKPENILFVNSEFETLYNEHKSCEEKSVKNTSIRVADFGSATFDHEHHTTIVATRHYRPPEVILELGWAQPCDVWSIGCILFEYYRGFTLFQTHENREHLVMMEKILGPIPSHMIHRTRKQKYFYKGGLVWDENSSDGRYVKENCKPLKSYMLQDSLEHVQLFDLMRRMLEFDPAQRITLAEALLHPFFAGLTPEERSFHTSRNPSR
Fibroblast growth factor receptor 3, sequence (P22607 whole entry): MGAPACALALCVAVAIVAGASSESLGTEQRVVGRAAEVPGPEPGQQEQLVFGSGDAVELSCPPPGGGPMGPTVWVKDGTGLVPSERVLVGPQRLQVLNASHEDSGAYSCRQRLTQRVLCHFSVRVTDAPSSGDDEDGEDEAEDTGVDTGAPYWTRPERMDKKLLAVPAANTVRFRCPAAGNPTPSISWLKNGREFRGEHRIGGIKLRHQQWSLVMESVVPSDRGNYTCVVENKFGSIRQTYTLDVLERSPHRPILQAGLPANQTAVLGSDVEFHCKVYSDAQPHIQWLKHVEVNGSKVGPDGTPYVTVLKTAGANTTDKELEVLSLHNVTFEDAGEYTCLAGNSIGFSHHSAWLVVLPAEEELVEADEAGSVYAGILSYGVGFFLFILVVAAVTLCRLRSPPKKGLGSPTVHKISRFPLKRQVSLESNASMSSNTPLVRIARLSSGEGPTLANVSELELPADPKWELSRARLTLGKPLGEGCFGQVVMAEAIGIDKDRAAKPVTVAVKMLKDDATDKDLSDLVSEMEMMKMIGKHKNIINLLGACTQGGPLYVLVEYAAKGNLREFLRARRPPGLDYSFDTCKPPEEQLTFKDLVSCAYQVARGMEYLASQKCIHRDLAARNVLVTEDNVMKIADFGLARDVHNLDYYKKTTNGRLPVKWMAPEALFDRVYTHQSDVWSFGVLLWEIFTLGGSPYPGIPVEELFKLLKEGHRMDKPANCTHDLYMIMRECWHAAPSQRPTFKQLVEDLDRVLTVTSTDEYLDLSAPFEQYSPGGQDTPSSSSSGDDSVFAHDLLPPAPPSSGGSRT
Non-receptor tyrosine-protein kinase TYK2, sequence (P29597 whole entry): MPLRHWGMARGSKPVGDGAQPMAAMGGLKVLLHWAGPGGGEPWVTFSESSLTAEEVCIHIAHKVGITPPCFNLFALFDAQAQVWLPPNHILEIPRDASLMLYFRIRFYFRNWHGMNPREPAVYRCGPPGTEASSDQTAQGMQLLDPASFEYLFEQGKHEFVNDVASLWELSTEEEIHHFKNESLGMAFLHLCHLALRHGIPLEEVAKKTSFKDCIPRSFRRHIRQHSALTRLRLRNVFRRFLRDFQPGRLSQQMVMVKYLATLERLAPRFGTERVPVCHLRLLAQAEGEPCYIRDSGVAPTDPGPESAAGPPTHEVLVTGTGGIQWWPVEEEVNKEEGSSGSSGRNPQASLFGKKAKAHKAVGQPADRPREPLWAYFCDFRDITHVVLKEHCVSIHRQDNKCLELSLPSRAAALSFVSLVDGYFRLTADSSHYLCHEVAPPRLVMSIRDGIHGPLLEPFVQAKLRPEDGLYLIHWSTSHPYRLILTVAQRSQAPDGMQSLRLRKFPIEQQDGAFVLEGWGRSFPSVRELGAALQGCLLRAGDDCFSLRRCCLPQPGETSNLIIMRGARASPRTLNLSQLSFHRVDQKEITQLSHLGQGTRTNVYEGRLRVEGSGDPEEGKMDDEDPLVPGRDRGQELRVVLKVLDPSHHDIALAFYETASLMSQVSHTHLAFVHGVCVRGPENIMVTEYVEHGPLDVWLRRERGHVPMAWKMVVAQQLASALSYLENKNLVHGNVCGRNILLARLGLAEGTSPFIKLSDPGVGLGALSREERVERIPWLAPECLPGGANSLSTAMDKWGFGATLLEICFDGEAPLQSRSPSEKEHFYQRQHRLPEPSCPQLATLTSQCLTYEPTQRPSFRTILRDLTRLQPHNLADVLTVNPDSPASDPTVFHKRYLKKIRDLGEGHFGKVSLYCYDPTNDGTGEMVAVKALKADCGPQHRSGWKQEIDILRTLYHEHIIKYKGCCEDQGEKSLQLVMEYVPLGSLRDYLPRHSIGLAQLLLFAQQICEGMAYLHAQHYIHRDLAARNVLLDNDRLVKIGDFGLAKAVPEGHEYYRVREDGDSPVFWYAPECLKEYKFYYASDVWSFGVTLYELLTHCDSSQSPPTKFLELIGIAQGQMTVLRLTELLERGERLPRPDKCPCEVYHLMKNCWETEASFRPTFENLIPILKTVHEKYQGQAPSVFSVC
Serine/threonine-protein kinase Nek6, sequence (Q9HC98 whole entry): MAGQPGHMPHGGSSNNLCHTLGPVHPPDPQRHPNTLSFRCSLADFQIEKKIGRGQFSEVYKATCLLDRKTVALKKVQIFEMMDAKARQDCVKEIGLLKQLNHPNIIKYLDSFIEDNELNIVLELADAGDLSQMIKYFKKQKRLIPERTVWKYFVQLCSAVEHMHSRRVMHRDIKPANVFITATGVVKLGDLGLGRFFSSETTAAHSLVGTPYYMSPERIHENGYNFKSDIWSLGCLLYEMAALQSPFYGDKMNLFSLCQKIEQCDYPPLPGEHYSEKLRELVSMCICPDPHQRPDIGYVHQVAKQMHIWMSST

Row | Compound | Kd [1] | Kd [2] | Kd [3] | Kd (Ephrin type-A receptor 1) | Kd [4] | Kd [5] | Kd (Insulin receptor) | Kd [6] | Kd [7] | Kd [8]
1 | CCN1CCN(Cc2ccc(NC(=O)Nc3ccc(Oc4cc(NC)ncn4)cc3)cc2C(F)(F)F)CC1 [AST-487] | > 10 µM | > 10 µM | > 10 µM | > 10 µM | 2.1 µM | > 10 µM | > 10 µM | > 10 µM | > 10 µM | > 10 µM
2 | COCC(=O)NC/C=C/c1ccc2ncnc(Nc3ccc(Oc4ccc(C)nc4)c(C)c3)c2c1 [CP-724714] | > 10 µM | > 10 µM | > 10 µM | > 10 µM | > 10 µM | > 10 µM | > 10 µM | > 10 µM | > 10 µM | > 10 µM
3 | Nc1nc(Nc2ccc(S(N)(=O)=O)cc2)nn1C(=O)c1c(F)cccc1F [JNJ-7706621] | 1.5 µM | > 10 µM |  | > 10 µM | 0.032 µM | > 10 µM | > 10 µM | 0.31 µM | > 10 µM | 0.16 µM
4 | CCOc1cc2ncc(C#N)c(Nc3ccc(F)c(Cl)c3)c2cc1NC(=O)/C=C/CN(C)C [PELITINIB] | > 10 µM | > 10 µM | > 10 µM | > 10 µM | > 10 µM | > 10 µM | > 10 µM | 5.6 µM | > 10 µM | > 10 µM
5 | Oc1ccc(-c2nc(-c3ccncc3)c(-c3ccc(F)cc3)[nH]2)cc1 [SB-202190] | > 10 µM | > 10 µM | > 10 µM | > 10 µM | > 10 µM | > 10 µM | > 10 µM | > 10 µM | > 10 µM | > 10 µM
6 | NC(=O)c1ccc(-c2nc(-c3ccc4c(c3)OCO4)c(-c3ccccn3)[nH]2)cc1 [SB-431542] | > 10 µM | > 10 µM | > 10 µM | > 10 µM | > 10 µM | > 10 µM | > 10 µM | > 10 µM | > 10 µM | > 10 µM
